Measured values as given in US7056903B2, “Carboxylic acid derivatives as IP antagonists” (Syntex (U.S.A.) LLC, priority 2000, dated 2006).

| melting point [°C] | Compound |
| --- | --- |
| 98.9 to 101.7 | O=C(N[C@H](Cc1ccccc1)C(=O)O)OCc1cc2cc(-c3ccc(F)c(F)c3)ccc2o1 [Compound 104, (R)-2-[5-(3,4-Difluoro-phenyl)-benzofuran-2-ylmethoxycarbonylamino]-3-phenyl-propionic acid] |
| 151 to 157 | O=C(N[C@H](Cc1ccc(Cl)cc1)C(=O)O)OCc1cc2cc(-c3ccccc3)ccc2o1 [Compound 106, (R)-3-(4-chloro-phenyl)-2-(5-phenyl-benzofuran-2-ylmethoxycarbonylamino)-propionic acid] |
| 136 to 140 | O=C(N[C@H](Cc1ccc(Br)cc1)C(=O)O)OCc1cc2cc(-c3ccccc3)ccc2o1 [Compound 107, (R)-3-(4-bromo-phenyl)-2-(5-phenyl-benzofuran-2-ylmethoxycarbonylamino)-propionic acid] |
| 141.4 to 142.3 | O=C(N[C@H](Cc1cccc(F)c1)C(=O)O)OCc1cc2cc(-c3ccccc3)ccc2o1 [Compound 108, (R)-3-(3-fluoro-phenyl)-2-(5-phenyl-benzofuran-2-ylmethoxycarbonylamino)-propionic acid] |
| 168 to 169.8 | O=C(O)CC(NC(=O)OCc1cc2cc(-c3ccccc3)ccc2o1)c1ccccc1 (stereo not drawn) [Compound 109, 3-phenyl-3-(5-phenyl-benzofuran-2-ylmethoxycarbonylamino)-propionic acid] |
| 168 to 169.8 | O=C(O)CC(Cc1ccccc1)NC(=O)OCc1cc2cc(-c3ccccc3)ccc2o1 (stereo not drawn) [Compound 110, 4-phenyl-3-(5-phenyl-benzofuran-2-ylmethoxycarbonylamino)-butyric acid] |
| 148.3 to 157 | O=C(N[C@@H](Cc1ccc(F)cc1)C(=O)O)OCc1cc2cc(-c3ccc(F)cc3)ccc2o1 [Compound 113, (S)-3-(4-fluoro-phenyl)-2-[5-(4-fluoro-phenyl)-benzofuran-2-ylmethoxycarbonylamino]-propionic acid] |
| 105.2 to 110.2 | O=C(N[C@H](Cc1ccc(F)cc1)C(=O)O)OCc1cc2cc(-c3ccccc3F)ccc2o1 [Compound 114, (R)-3-(4-fluoro-phenyl)-2-[5-(2-fluoro-phenyl)-benzofuran-2-ylmethoxycarbonylamino]-propionic acid] |
| 86.7 to 100.1 | O=C(N[C@H](Cc1ccc(F)cc1)C(=O)O)OCc1cc2cc(-c3ccccc3Cl)ccc2o1 [Compound 115, (R)-2-[5-(2-chloro-phenyl)-benzofuran-2-ylmethoxycarbonylamino]-3-(4-fluoro-phenyl)-propionic acid] |
| 132 to 134.5 | O=C(N[C@H](Cc1ccc(F)cc1)C(=O)O)OCc1cc2cc(-c3ccc4c(c3)OCO4)ccc2o1 [Compound 116, (R)-2-(5-benzo[1,3]dioxol-5-yl-benzofuran-2-ylmethoxycarbonylamino)-3-(4-fluoro-phenyl)-propionic acid] |
| 114.3 to 124.6 | CC(C)(C)c1ccc(-c2ccc3oc(COC(=O)N[C@H](Cc4ccc(F)cc4)C(=O)O)cc3c2)cc1 [Compound 117, (R)-2-[5-(4-tert-butyl-phenyl)-benzofuran-2-ylmethoxycarbonylamino]-3-(4-fluoro-phenyl)-propionic acid] |
| 130 to 154.5 | O=C(N[C@H](Cc1ccc(Cl)cc1)C(=O)O)OCc1cc2cc(-c3ccc(F)cc3)ccc2o1 [Compound 118, (R)-3-(4-chloro-phenyl)-2-[5-(4-fluoro-phenyl)-benzofuran-2-ylmethoxycarbonylamino]-propionic acid] |
| 150.6 to 160 | O=C(N[C@H](Cc1ccc(Br)cc1)C(=O)O)OCc1cc2cc(-c3ccc(F)cc3)ccc2o1 [Compound 119, (R)-3-(4-bromo-phenyl)-2-[5-(4-fluoro-phenyl)-benzofuran-2-ylmethoxycarbonylamino]-propionic acid] |
| 81.7 to 82.9 | O=C(N[C@H](Cc1cccc(F)c1)C(=O)O)OCc1cc2cc(-c3ccc(F)cc3)ccc2o1 [Compound 120, (R)-3-(3-fluoro-phenyl)-2-[5-(4-fluoro-phenyl)-benzofuran-2-ylmethoxycarbonylamino]-propionic acid] |
| 98 to 101 | O=C(N[C@H](Cc1ccc(F)cc1)C(=O)O)OCc1cc2cc(-c3cc(F)ccc3F)ccc2o1 [Compound 121, (R)-2-[5-(2,5-difluoro-phenyl)-benzofuran-2-ylmethoxycarbonylamino]-3-(4-fluoro-phenyl)-propionic acid] |
| 97 to 99.1 | O=C(N[C@H](Cc1ccc(F)cc1)C(=O)O)OCc1cc2cc(-c3ccc(F)c(F)c3)ccc2o1 [Compound 122, (R)-2-[5-(3,4-difluoro-phenyl)-benzofuran-2-ylmethoxycarbonylamino]-3-(4-fluoro-phenyl)-propionic acid] |
| 174 to 175 | O=C(N[C@H](Cc1ccc(F)cc1)C(=O)O)OCc1cc2cc(-c3cc(F)cc(F)c3)ccc2o1 [Compound 123, (R)-2-[5-(3,5-difluoro-phenyl)-benzofuran-2-ylmethoxycarbonylamino]-3-(4-fluoro-phenyl)-propionic acid] |
| 143 to 145.7 | O=C(N[C@H](Cc1ccccc1)C(=O)O)OCc1cc2cc(-c3cccnc3)ccc2o1 [Compound 124, (R)-3-phenyl-2-(5-pyridin-3-yl-benzofuran-2-ylmethoxycarbonylamino)-propionic acid] |
| 67.7 to 68.2 | Cc1ccc(-c2cc(COC(=O)NC(Cc3ccccc3)C(=O)O)co2)cc1 (stereo not drawn) [Compound 127, 3-phenyl-2-(5-p-tolyl-furan-3-ylmethoxycarbonylamino)-propionic acid] |
| 170.9 to 171.9 | O=C(N[C@@H](Cc1ccccc1)C(=O)O)OCCc1cc2cc(-c3ccccc3)ccc2o1 [Compound 128, (S)-3-phenyl-2-[2-(5-phenyl-benzofuran-2-yl)-ethoxycarbonylamino]-propionic acid] |

More lines, now with the values behind:

| Compound | melting point [°C] |
| --- | --- |
| CC(=O)Nc1cccc(OCc2ccc(COC(=O)N[C@H](Cc3ccccc3)C(=O)O)cc2)c1 [Compound 79, (R)-2-[4-(3-acetylamino-phenoxymethyl)-benzyloxycarbonylamino]-3-phenyl-propionic acid] | 190.3 to 193.5 |
| O=C(N[C@H](Cc1ccccc1)C(=O)O)OCc1ccc(COc2cccc([N+](=O)[O-])c2)cc1 [Compound 80, (R)-2-[4-(3-nitro-phenoxymethyl)-benzyloxycarbonylamino]-3-phenyl-propionic acid] | 160.8 to 161.7 |
| O=C(N[C@H](Cc1ccccc1)C(=O)O)OCc1ccc(COc2cccc(NC(=O)c3ccccc3)c2)cc1 [Compound 81, (R)-3-phenyl-2-(4-{3-[(1-phenyl-methanoyl)-amino]-phenoxymethyl}-benzyloxycarbonylamino)-propionic acid] | 161.9 to 163.7 |
| O=C(NC(Cc1ccccc1)C(=O)O)OCc1ccc(COc2ccccc2)c(F)c1 (stereo not drawn) [Compound 82, 2-(3-fluoro-4-phenoxymethyl-benzyloxycarbonylamino)-3-phenyl-propionic acid] | 104.2 to 104.7 |
| O=C(NC(Cc1cccc(NS(=O)(=O)c2ccccc2)c1)C(=O)O)OCc1ccc(COc2ccccc2)cc1 (stereo not drawn) [Compound 83, 3-(3-benzenesulfonylamino-phenyl)-2-(4-phenoxymethyl-benzyloxycarbonylamino)-propionic acid] | 129.7 to 130.3 |
| O=C(Cc1ccc(OCc2ccccc2)cc1)NC(Cc1ccccc1)C(=O)O (stereo not drawn) [Compound 84, 2-(4-benzyloxybenzylcarbonylamino)-3-phenyl-propionic acid] | 118.3 to 119.9 |
| O=C(NC(Cc1ccccc1)C(=O)O)OCc1ccc(OCc2ccc(F)cc2)cc1 (stereo not drawn) [Compound 85, 2-[4-(4-fluoro-benzyloxy)-benzyloxycarbonylamino]-3-phenyl-propionic acid] | 134 to 138 |
| O=C(NC(Cc1ccccc1)C(=O)O)OCc1ccc(OCCc2ccccc2)cc1 (stereo not drawn) [Compound 86, 2-(4-phenethyloxy-benzyloxycarbonylamino)-3-phenyl-propionic acid] | 96.9 to 97.4 |
| O=C(N[C@H](Cc1ccccc1)C(=O)O)OCc1ccc(OCCCc2ccccc2)cc1 [Compound 87, (R)-3-phenyl-2-[4-(3-phenyl-propoxy)-benzyloxycarbonylamino]-propionic acid] | 105.6 to 106.5 |
| O=C(O)C(Cc1ccccc1)NC(=O)C(O)c1ccc(OCc2cccc3[nH]ccc23)cc1 (stereo not drawn) [Compound 88, 2-{2-hydroxy-2-[4-(1H-indol-4-ylmethoxy)-phenyl]-ethanoylamino}-3-phenyl-propionic acid] | 178 to 181 |
| O=C(N[C@H](Cc1ccccc1)C(=O)O)OCc1ccc(OCCOc2ccccc2)cc1 [Compound 89, (R)-2-[4-(2-phenoxy-ethoxy)-benzyloxycarbonylamino]-3-phenyl-propionic acid] | 130 to 131.3 |
| O=C(NC(Cc1ccccc1)C(=O)O)OCc1ccc(COCc2ccccc2)cc1 (stereo not drawn) [Compound 90, 2-(4-benzyloxymethyl-benzyloxycarbonylamino)-3-phenyl-propionic acid] | 78.3 to 79.9 |
| O=C(N[C@H](Cc1ccccc1)C(=O)O)OCc1cc2cc(-c3cc(F)cc(F)c3)ccc2o1 [Compound 99, (R)-2-[5-(3,5-difluoro-phenyl)-benzofuran-2-ylmethoxycarbonylamino]-3-phenyl-propionic acid] | 163 to 167 |
| O=C(N[C@H](Cc1ccccc1)C(=O)O)OCc1cc2cc(-c3cccc(F)c3F)ccc2o1 [Compound 100, (R)-2-[5-(2,3-difluoro-phenyl)-benzofuran-2-ylmethoxycarbonylamino]-3-phenyl-propionic acid] | 159 to 160 |
| O=C(N[C@H](Cc1ccccc1)C(=O)O)OCc1cc2cc(-c3cccc4c3OCO4)ccc2o1 [Compound 102, (R)-2-(5-benzo[1,3]dioxol-4-yl-benzofuran-2-ylmethoxycarbonylamino)-3-phenyl-propionic acid] | 191 to 192 |
| O=C(N[C@H](Cc1ccccc1)C(=O)O)OCc1cc2cc(-c3cc(F)ccc3F)ccc2o1 [Compound 103, (R)-2-[5-(2,5-difluoro-phenyl)-benzofuran-2-ylmethoxycarbonylamino]-3-phenyl-propionic acid] | 89.4 to 92.6 |
